# Tested on: HIF1α signaling
# Format: cell-based
molecule,measurement,value
COc1ccc(C[C@H]2NC[C@H](O)[C@H]2OC(C)=O)cc1 [Anisomycin],effect on CoCl2-induced HIF1α signaling,suppressed CoCl2-induced HIF1α signaling
COc1cc(C[C@H]2C(=O)OC[C@@H]2Cc2ccc(OC)c(OC)c2)ccc1O [Arctigenin],effect on CoCl2-induced HIF1α signaling,suppressed CoCl2-induced HIF1α signaling
[Cl][Co][Cl] [Cobalt chloride],time to induce hypoxia in the entire spheroid,6 to 8 h
COc1cc2c(cc1OC)[C@@H]1C(=O)c3ccc4c(c3O[C@@H]1CO2)C=CC(C)(C)O4 [Deguelin],effect on CoCl2-induced HIF1α signaling,no significant effect on HIF1α signaling
Nc1ccn([C@@H]2O[C@H](CO)[C@@H](O)C2(F)F)c(=O)n1 [Gemzar],effect on CoCl2-induced HIF1α signaling,suppressed CoCl2-induced HIF1α signaling
Cc1ccc(NC(=O)c2ccc(CN3CCN(C)CC3)cc2)cc1Nc1nccc(-c2cccnc2)n1 [Gleevec],effect on CoCl2-induced HIF1α signaling,no significant effect on HIF1α signaling
COc1cc2ncnc(Nc3ccc(F)c(Cl)c3)c2cc1OCCCN1CCOCC1 [Iressa],effect on CoCl2-induced HIF1α signaling,suppressed CoCl2-induced HIF1α signaling
CCCCCCCCCCC[C@@H](C[C@@H]1OC(=O)[C@H]1CCCCCC)OC(=O)[C@H](CC(C)C)NC=O [Orlistat],effect on CoCl2-induced HIF1α signaling,suppressed CoCl2-induced HIF1α signaling
C[S+]([O-])c1ccc(-c2nc(-c3ccncc3)c(-c3ccc(F)cc3)[nH]2)cc1 (centres unmarked) [SB 203580],effect on CoCl2-induced HIF1α signaling,no significant effect on HIF1α signaling
C#Cc1cccc(Nc2ncnc3cc(OCCOC)c(OCCOC)cc23)c1 [Tarceva],effect on CoCl2-induced HIF1α signaling,suppressed CoCl2-induced HIF1α signaling
PD 168393,effect on CoCl2-induced HIF1α signaling,no significant effect on HIF1α signaling

# Reference: patent publication US20080044348A1 (priority 2006, published 2008)
